Measured values taken from US20240043859A1, “HERBICIDE-RESISTANT PROTEIN, AND GENE AND USE THEREOF” (QINGDAO KINGAGROOT CHEMICAL COMPOUND CO., LTD., priority 2020, published 2024).
“Also recorded” adds a separate entry of the source.

Tests used:
Arabidopsis thaliana [1] = assay: Herbicide resistance of transgenic Arabidopsis thaliana seedlings on plate medium (root growth); assay type: in vivo; settings: plate medium: 2,4-D 0.3 μmol; 2,4-DB sodium 0.7 μmol; MCPA 0.1 μmol
Protocol: Expression in Arabidopsis thaliana was regulated by its AtUbi10 Arabidopsis thaliana ubiquitin promoter and the MAS (mannopine synthase) terminator. Hygromycin resistance gene (HygR=hpt) served as the selection marker.
Preparation of Agrobacterium infection solution: An activated Agrobacterium (GV3101) monoclone was picked and inoculated in 30 ml YEP liquid medium [yeast powder 10 g/L, tryptone 10 g/L, NaCl 5 g/L, 25 mg/L Rifampicin and 50 mg/L Kanamycin], shaking-cultured at 200 rmp/min, 28° C. overnight until the OD600 was about 1.0-1.5, then centrifuged at 6000 rmp/min for 10 min to collect the bacteria, and the supernatant was discarded. Arabidopsis thaliana infection solution (sucrose 50 g/L, Silwet L-77 300 μL/L, no need to adjust pH) was used to resuspend the cells to OD600=0.8 for later use.
Genetic transformation of Arabidopsis thaliana by flower dipping: Before transformation of Arabidopsis thaliana plants, attentions were paid to whether the plants were growing well, the inflorescences were abundant, and no stress response occurred. The first transformation was performed when plants were about 20 cm high. Plants could be properly watered if the soil was dry. The grown siliques were cut off with scissors the day before transformation. The inflorescences of the plants to be transformed were soaked in the above-mentioned Agrobacterium solution for 30 seconds to 1 minute, which was stirred gently during the period. And a layer of liquid film should appear on the infiltrated plant. The transformed plants were cultured in a dark environment for 24 hours, and then taken out and grown in a normal light environment. A second transformation could be performed in the same way a week later. […]

AAD-12 = biological target: T1, AAD-12 (Delftia acidovorans, UniProt P83309); assay: Degradation activities of AAD-12 on phenoxy acetic acid herbicides by spectrophotometry (A510); assay type: biochemical, Comamonas acidovorans; settings: for A510 of reaction group, Reaction 1 / A510 of reaction group, Reaction 2 / A510 of reaction group, Reaction 3: AAD-12 enzyme with substrate, chromogenic detection at 510 nm; for Increased A510: reaction group versus blank group
T1 construct: made in house; host or cells: E. coli BL21(DE3)
T1 sequence (P83309 2-292, added parts left off): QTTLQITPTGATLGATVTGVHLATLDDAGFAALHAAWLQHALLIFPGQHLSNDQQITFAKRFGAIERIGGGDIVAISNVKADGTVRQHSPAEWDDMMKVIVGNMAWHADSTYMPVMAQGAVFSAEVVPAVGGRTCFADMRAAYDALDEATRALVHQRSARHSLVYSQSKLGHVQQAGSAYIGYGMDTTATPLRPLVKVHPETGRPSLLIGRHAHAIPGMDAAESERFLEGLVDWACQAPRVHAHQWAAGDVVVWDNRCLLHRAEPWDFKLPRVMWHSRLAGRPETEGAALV
Protocol: As reported in literature (Fukomori and Flausinger, Purification and characterization of 2,4-dichlorophenoxyacetate/alpha-ketoglutarate dioxygenase Journal of Biological Chemistry (1993) 268(32): 24311-24317), the constructed expression vector pET15b-AAD12 was transformed into E. coli BL21(DE3) and induced by IPTG for expression. After cells were collected and lysed, Ni-NTA column was used for purification and the purity of the protein was analyzed by SDS-PAGE.
Since phenolic products were produced by AAD-12-substrate catalytic reaction, 4-aminoantipyrine and potassium ferricyanide could be used to develop color with the products in an alkaline environment to generate red products with absorption at 510 nm, and the relevant parameters were directly read with a microplate reader.

Arabidopsis thaliana [2] = assay: Spray testing of T2 generation transgenic Arabidopsis thaliana; assay type: in vivo; settings: 100 g/ha foliage spray, 10 days after spraying
From the text: The T2 generation seedlings of four representative transformants, pQY2309, pQY2310, pQY2311 and pQY2313, were selected for further spray testing. Four lines were randomly selected from the T2 generation generated by transformation of each vector, and respectively foliage-sprayed with 2,4-D (100 g/ha), MCPA (100 g/ha) and 2,4-DB sodium (100 g/ha) when Arabidopsis thaliana seeds germinated, transplanted and the seedlings grew to 5-7 leaf. Non-transgenic wild-type Col-0 served as a negative control. The level of resistance was assessed 10 days after spraying.

Compound | Effect of the herbicide on seminal roots of wild-type Col-0 (Arabidopsis thaliana [1]) | Degradation activity of expressed AAD-12 enzyme on the substrate (AAD-12) | A510 of reaction group, Reaction 1 (AAD-12) | A510 of reaction group, Reaction 2 (AAD-12) | Increased A510 (AAD-12) | Effect of the herbicide spray on wild-type Col-0 (Arabidopsis thaliana [2]) | A510 of reaction group, Reaction 3 (AAD-12)
Cc1cc(Cl)ccc1OCC(=O)O [MCPA, (4-chloro-2-methylphenoxy)acetic acid] | seminal roots are inhibited; also recorded: seminal roots are not able to grow | degradation activities | 0.1998 | 0.2076 | +0.035 | all or almost all non-transgenic wild-type Arabidopsis thaliana died; also recorded: all die | –
O=C(O)CCCOc1ccc(Cl)cc1Cl [2,4-DB, 4-(2,4-dichlorophenoxy)butanoic acid] | – | degradation activities | 0.1373 | 0.1326 | +0.017 | – | 0.1345
CC(C)CCCCCOC(=O)COc1ccc(Cl)cc1Cl [2,4-D isooctyl ester] | – | degradation activities | 0.1570 | 0.1578 | +0.019 | – | 0.1497
O=C([O-])CCCOc1ccc(Cl)cc1Cl.[Na+] [2,4-DB sodium, reference compound] | seminal roots are inhibited; also recorded: seminal roots are not able to grow | – | – | – | – | all or almost all non-transgenic wild-type Arabidopsis thaliana died; also recorded: severely injured | –
